Measured values: ChEMBL document CHEMBL4043199, “Synthesis and optimization of 4,5,6,7-tetrahydrooxazolo[4,5-c]pyridines as potent and orally-active metabotropic glutamate receptor 5 negative allosteric modulators” (Bioorg Med Chem Lett, 2017)
Converted amounts (≈) assume the structure as drawn. The source made the active and inactive calls. No cut-off for these calls is given here.

Key:
[1] = AUC in monkey at 10 mg/kg, po; assay type: ADME, organism-based, Macaca mulatta; conditions: rhesus monkey, in vivo
[2] = Half life in rat at 0.35 mg/kg, iv; assay type: ADME, organism-based; conditions: in vivo
Cytochrome P450 2D6 = Cytochrome P450 2D6 (Homo sapiens, UniProt P10635); assay: Inhibition of CYP2D6 in human liver microsomes using bufuralol as substrate after 10 mins by LC-MS/MS analysis; assay type: ADME
[3] = Clearance in monkey at 0.5 mg/kg, iv after 24 hrs; assay type: ADME, organism-based, Macaca mulatta; conditions: rhesus monkey, in vivo
[4] = AUC in rat at 10 mg/kg, po; assay type: ADME, organism-based; conditions: in vivo
[5] = AUC in rat at 0.35 mg/kg, iv; assay type: ADME, organism-based; conditions: in vivo
[6] = Cmax in monkey at 10 mg/kg, po; assay type: ADME, organism-based, Macaca mulatta; design: dose 10 mg/kg, route oral; conditions: rhesus monkey, in vivo
[7] = target: Metabotropic glutamate receptor 5 (Homo sapiens, UniProt P41594); assay: Negative allosteric modulation of human recombinant mGluR5 expressed in HEK293 cells assessed as inhibition of glutamate-induced calcium mobilization preincubated for 2 mins followed glutamate addition measured by fluorescence assay; assay type: functional, cell-based
[8] = Oral bioavailability in monkey at 10 mg/kg; assay type: ADME, organism-based, Macaca mulatta; conditions: rhesus monkey, in vivo
[9] = Oral bioavailability in rat at 10 mg/kg; assay type: ADME, organism-based; conditions: in vivo
Rattus norvegicus [10] = assay: Antidepressant activity in Wistar rat assessed as decrease in immobility time at 0.3 to 1 mg/kg, po administered 15 mins post training session from day 2 to day 6 measured for 5 mins by forced swimming test; assay type: functional, organism-based
Rattus norvegicus [11] = assay: Toxicity in rat at 100 mg/kg, po qd administered via gavage for 14 days; assay type: organism-based; conditions: in vivo, 336 h
[12] = Permeability of the compound at pH 7.4 by PAMPA; assay type: physicochemical; conditions: read-out: permeability
[13] = Aqueous solubility of compound at pH 7.4; assay type: physicochemical; conditions: aqueous medium
[14] = Metabolic stability in human hepatic microsomes assessed as parent compound remaining at 1 uM after 30 mins in presence of NADPH by LC-MS/MS analysis relative to control; assay type: ADME, Microsome; conditions: liver microsomes, read-out: Stability
[15] = Cmax in rat at 10 mg/kg, po; assay type: ADME, organism-based; design: dose 10 mg/kg, route oral; conditions: in vivo
Rattus norvegicus [16] = assay: Ex vivo receptor occupancy at mGluR5 in Sprague-Dawley rat brain at 0.3 mg/kg, po administered daily for 4 days in presence of [3H]-MPEPy by liquid scintillation counting method relative to control; assay type: functional
[17] = target: Voltage-gated inwardly rectifying potassium channel KCNH2 (Homo sapiens, UniProt Q12809); assay: Inhibition of human ERG
[18] = AUC in monkey at 0.5 mg/kg, iv; assay type: ADME, organism-based, Macaca mulatta; conditions: rhesus monkey, in vivo
[19] = Metabolic stability in rat hepatic microsomes assessed as parent compound remaining at 1 uM after 30 mins in presence of NADPH by LC-MS/MS analysis relative to control; assay type: ADME, Microsome; conditions: liver microsomes, read-out: Stability
Cytochrome P450 2C8 = target: T1, Cytochrome P450 2C8 (Homo sapiens, UniProt P10632); assay: Inhibition of CYP2C8 in human liver microsomes using amodiaquine as substrate after 10 mins by LC-MS/MS analysis; assay type: ADME
T1 sequence (P10632 whole entry): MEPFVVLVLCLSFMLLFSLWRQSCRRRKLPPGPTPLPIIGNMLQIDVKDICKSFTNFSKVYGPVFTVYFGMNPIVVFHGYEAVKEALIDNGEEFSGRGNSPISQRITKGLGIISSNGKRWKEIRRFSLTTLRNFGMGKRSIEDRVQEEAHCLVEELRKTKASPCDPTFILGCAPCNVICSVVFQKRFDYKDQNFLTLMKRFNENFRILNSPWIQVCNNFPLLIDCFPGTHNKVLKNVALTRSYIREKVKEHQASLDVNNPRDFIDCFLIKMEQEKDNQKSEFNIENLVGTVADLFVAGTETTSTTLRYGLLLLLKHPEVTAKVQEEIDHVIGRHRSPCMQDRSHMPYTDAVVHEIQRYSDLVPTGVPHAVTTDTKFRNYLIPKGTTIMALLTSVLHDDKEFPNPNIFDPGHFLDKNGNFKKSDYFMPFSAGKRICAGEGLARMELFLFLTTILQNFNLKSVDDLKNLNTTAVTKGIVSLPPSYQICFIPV

[20] = Volume of distribution at steady state in monkey at 0.5 mg/kg, iv after 24 hrs; assay type: ADME, organism-based, Macaca mulatta; conditions: rhesus monkey, in vivo, read-out: Vdss
[21] = […] of CYP450 in human liver microsomes as substrate after 10 mins by LC-MS/MS analysis; assay type: ADME
Cytochrome P450 2C19 = Cytochrome P450 2C19 (Homo sapiens, UniProt P33261); assay: Inhibition of CYP2C19 in human liver microsomes using (S)-mephenytoin as substrate after 10 mins by LC-MS/MS analysis; assay type: ADME
[22] = Half life in monkey at 0.5 mg/kg, iv; assay type: ADME, organism-based, Macaca mulatta; conditions: rhesus monkey, in vivo
Cytochrome P450 3A4 = Cytochrome P450 3A4 (Homo sapiens, UniProt P08684); assay: Inhibition of CYP3A4 in human liver microsomes using midazolam as substrate after 10 mins by LC-MS/MS analysis; assay type: ADME
Cytochrome P450 2C9 = Cytochrome P450 2C9 (Homo sapiens, UniProt P11712); assay: Inhibition of CYP2C9 in human liver microsomes using diclofenac as substrate after 10 mins by LC-MS/MS analysis; assay type: ADME
P-gp = assay: Substrate activity at P-gp (unknown origin) assessed as efflux ratio; assay type: ADME; conditions: human, not told
Rattus norvegicus [23] = assay: Ex vivo receptor occupancy at mGluR5 in Sprague-Dawley rat brain po administered daily for 4 days in presence of [3H]-MPEPy by liquid scintillation counting method; assay type: functional, organism-based
[24] = Volume of distribution at steady state in rat at 0.35 mg/kg, iv after 24 hrs; assay type: ADME, organism-based; conditions: in vivo, read-out: Vdss
Cytochrome P450 2A6 = target: T2, Cytochrome P450 2A6 (Homo sapiens, UniProt P11509); assay: Inhibition of CYP2A6 in human liver microsomes using coumarin as substrate after 10 mins by LC-MS/MS analysis; assay type: ADME
T2 sequence (P11509 whole entry): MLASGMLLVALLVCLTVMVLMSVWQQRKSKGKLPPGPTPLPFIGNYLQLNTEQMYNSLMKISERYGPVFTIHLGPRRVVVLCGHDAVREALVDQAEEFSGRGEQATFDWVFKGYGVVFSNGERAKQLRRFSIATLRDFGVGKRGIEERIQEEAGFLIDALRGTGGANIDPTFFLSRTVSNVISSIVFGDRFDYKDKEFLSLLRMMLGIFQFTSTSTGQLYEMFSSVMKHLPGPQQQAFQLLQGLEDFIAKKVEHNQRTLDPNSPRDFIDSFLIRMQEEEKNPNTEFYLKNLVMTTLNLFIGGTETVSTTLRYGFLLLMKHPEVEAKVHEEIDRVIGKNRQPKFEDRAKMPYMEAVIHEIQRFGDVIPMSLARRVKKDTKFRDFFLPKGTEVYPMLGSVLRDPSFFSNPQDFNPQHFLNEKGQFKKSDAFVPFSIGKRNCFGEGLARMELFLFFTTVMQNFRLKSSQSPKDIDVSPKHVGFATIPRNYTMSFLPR

Cytochrome P450 1A2 = target: T3, Cytochrome P450 1A2 (Homo sapiens, UniProt P05177); assay: Inhibition of CYP1A2 in human liver microsomes using phenacetin as substrate after 10 mins by LC-MS/MS analysis; assay type: ADME
T3 sequence (P05177 whole entry): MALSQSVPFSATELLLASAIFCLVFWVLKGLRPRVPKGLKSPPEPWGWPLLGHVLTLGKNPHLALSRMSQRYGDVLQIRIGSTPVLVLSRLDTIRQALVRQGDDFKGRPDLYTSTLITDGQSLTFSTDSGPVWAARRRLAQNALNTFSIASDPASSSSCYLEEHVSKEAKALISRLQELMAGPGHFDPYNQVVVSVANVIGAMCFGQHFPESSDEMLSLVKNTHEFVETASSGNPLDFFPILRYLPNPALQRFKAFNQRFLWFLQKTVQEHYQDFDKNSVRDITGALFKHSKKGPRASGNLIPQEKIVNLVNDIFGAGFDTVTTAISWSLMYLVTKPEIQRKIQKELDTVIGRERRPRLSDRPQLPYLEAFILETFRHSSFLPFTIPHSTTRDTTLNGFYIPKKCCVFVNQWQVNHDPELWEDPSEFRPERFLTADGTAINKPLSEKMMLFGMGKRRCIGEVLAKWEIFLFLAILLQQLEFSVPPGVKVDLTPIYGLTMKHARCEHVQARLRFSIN

[25] = Clearance in rat at 0.35 mg/kg, iv after 24 hrs; assay type: ADME, organism-based; conditions: in vivo
Salmonella typhimurium = assay: Genotoxicity in Salmonella typhimurium by Ames test; assay type: toxicity; conditions: salmonella enterica subsp. enterica serovar typhimurium
[26] = AUC in rat at 1 mg/kg, iv; assay type: ADME, organism-based; conditions: in vivo
[27] = Clearance in rat at 1 mg/kg, iv after 24 hrs; assay type: ADME, organism-based; conditions: in vivo
[28] = Volume of distribution at steady state in rat at 1 mg/kg, iv after 24 hrs; assay type: ADME, organism-based; conditions: in vivo, read-out: Vdss
[29] = Half life in rat at 1 mg/kg, iv; assay type: ADME, organism-based; conditions: in vivo
Rattus norvegicus [30] = assay: Ex vivo receptor occupancy at mGluR5 in Sprague-Dawley rat brain at 1 mg/kg, po administered daily for 4 days in presence of [3H]-MPEPy by liquid scintillation counting method relative to control; assay type: functional

Chain of Voltage-gated inwardly rectifying potassium channel KCNH2 (Q12809 whole entry): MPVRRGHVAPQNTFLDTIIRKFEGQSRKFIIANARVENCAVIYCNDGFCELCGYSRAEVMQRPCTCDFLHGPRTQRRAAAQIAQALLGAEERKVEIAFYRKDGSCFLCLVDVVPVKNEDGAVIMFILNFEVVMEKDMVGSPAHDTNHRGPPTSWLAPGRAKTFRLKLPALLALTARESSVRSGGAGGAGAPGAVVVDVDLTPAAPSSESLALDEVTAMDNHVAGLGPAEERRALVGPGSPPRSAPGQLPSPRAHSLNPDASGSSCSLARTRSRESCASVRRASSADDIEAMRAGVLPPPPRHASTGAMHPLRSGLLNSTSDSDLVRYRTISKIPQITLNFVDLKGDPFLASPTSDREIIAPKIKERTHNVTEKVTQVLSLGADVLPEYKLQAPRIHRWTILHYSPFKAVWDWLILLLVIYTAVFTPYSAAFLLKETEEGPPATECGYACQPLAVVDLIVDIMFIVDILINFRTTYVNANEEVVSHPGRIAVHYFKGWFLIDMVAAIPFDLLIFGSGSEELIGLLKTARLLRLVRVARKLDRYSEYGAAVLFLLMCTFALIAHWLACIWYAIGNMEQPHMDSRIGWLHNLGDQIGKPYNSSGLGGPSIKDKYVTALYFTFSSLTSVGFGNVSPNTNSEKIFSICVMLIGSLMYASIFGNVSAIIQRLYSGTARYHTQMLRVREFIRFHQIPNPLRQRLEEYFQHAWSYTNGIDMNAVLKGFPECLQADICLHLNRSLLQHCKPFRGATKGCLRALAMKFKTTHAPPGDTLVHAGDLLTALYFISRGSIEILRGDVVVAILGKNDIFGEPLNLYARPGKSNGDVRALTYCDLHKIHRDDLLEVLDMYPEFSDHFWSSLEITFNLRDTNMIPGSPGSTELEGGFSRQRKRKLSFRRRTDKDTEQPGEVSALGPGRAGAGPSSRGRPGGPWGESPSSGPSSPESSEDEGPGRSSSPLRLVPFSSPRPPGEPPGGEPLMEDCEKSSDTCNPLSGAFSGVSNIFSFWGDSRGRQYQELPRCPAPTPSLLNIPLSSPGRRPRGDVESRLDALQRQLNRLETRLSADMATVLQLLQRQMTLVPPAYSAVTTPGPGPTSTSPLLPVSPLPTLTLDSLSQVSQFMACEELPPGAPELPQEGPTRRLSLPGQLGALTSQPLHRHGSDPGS
Chain of Cytochrome P450 2D6 (P10635 whole entry): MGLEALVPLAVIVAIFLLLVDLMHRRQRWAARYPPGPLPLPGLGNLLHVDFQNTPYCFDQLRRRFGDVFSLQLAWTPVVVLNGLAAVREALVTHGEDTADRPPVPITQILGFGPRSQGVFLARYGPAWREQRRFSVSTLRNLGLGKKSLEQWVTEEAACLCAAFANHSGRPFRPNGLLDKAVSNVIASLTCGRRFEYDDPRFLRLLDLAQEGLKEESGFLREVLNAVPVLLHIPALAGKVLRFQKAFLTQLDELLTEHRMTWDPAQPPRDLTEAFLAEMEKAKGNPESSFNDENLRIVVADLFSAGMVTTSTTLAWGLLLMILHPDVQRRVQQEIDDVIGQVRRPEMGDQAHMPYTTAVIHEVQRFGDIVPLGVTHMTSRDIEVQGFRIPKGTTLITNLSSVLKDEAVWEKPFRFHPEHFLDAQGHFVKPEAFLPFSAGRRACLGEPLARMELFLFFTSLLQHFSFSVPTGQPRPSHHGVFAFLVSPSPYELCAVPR
Chain of Cytochrome P450 2C19 (P33261 whole entry): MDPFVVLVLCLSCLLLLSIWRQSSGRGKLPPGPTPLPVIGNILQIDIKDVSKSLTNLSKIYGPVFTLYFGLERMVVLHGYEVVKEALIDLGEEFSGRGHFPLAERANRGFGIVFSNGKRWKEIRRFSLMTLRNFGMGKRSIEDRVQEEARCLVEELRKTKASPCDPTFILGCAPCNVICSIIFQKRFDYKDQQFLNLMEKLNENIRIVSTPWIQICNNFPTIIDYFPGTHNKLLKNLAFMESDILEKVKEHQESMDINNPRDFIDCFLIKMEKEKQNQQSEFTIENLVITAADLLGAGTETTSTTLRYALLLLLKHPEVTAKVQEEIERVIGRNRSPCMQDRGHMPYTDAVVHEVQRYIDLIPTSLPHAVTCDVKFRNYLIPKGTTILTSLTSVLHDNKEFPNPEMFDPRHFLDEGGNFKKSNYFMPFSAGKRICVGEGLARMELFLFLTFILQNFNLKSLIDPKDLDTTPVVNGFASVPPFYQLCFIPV
Chain of Metabotropic glutamate receptor 5 (P41594 whole entry): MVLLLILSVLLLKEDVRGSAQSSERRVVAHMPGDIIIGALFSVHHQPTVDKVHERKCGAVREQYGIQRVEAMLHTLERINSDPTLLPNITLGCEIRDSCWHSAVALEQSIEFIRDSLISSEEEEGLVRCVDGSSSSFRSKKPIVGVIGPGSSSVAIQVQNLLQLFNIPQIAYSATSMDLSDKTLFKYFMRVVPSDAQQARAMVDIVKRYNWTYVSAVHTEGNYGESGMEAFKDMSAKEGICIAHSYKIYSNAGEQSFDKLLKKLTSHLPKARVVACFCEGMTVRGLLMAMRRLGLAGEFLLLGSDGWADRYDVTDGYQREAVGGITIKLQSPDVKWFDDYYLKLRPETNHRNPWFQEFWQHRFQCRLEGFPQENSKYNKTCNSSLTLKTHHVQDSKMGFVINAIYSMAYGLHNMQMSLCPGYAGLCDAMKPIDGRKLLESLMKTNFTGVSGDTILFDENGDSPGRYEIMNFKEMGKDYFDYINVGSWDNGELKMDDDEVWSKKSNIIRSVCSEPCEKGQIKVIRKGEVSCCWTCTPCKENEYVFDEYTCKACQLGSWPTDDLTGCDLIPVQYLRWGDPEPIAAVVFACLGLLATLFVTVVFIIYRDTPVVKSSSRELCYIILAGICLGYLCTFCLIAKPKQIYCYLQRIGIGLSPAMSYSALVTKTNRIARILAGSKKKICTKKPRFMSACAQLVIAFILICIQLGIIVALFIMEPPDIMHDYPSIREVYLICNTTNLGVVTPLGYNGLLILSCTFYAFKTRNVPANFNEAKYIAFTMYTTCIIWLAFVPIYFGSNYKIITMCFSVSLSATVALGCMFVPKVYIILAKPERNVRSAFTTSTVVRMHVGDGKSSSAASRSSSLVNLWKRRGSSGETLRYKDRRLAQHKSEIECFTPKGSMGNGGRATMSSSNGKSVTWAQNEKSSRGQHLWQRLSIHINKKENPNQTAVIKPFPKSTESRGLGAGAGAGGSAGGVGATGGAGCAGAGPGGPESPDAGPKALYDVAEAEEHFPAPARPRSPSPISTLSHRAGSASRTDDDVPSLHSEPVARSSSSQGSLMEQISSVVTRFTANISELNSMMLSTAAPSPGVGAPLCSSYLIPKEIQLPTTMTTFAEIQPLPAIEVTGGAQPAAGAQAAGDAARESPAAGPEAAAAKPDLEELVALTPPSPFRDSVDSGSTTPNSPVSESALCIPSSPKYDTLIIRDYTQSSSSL
Chain of Cytochrome P450 3A4 (P08684 whole entry): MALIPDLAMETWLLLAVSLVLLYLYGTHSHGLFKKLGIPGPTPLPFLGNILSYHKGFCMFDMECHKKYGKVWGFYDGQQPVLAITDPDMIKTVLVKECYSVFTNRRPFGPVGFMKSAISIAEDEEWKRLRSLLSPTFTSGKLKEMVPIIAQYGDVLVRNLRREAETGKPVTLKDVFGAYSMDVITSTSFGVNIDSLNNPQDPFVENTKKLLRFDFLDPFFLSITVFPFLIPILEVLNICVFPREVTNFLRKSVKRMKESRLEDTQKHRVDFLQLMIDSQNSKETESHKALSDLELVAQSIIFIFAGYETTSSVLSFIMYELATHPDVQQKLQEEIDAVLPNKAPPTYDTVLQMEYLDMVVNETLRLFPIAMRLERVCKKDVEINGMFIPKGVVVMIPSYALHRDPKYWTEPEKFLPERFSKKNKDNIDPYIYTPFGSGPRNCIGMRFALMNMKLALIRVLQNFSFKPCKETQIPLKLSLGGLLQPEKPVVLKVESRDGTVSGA
Chain of Cytochrome P450 2C9 (P11712 whole entry): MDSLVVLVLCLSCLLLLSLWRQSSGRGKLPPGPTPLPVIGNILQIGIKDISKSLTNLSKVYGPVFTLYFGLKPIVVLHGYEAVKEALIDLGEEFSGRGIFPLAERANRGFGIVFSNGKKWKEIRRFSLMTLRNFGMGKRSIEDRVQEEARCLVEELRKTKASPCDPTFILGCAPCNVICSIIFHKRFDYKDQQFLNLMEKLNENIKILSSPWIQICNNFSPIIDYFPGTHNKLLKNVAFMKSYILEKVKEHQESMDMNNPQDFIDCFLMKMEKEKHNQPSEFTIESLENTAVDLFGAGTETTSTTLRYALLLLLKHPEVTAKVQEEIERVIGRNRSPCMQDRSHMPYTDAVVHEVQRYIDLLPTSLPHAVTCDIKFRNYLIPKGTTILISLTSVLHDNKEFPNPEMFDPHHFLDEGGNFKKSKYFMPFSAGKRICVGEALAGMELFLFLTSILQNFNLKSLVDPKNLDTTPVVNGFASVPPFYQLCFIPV

O=C(c1ccccc1)N1CCc2oc(-c3ccc(F)cn3)nc2C1
AUC [1]: 57100 ng·h/mL | half-life [2]: 2.1 h | IC50 (Cytochrome P450 2D6): > 50 µM | clearance [3]: 4.2 mL/min/kg | AUC [4]: 37400 ng·h/mL | AUC [5]: 1290 ng·h/mL | Cmax [6]: 3900 ng/mL | IC50 [7]: 0.054 µM | bioavailability [8]: 139% | bioavailability [9]: 102% | Activity (Rattus norvegicus [10]): Active | Activity (Rattus norvegicus [11]): Non-Toxic | Papp [12]: 34.5 ×10⁻⁶ cm/s | solubility [13]: 16 µg/mL (≈ 49.5 µM) | remaining at 0.5 h, 1 µM [14]: 91 to 97% | Cmax [15]: 2750 ng/mL | Occ (Rattus norvegicus [16]): 50% | IC50 [17]: 64 µM | AUC [18]: 2060 ng·h/mL | remaining at 0.5 h, 1 µM [19]: 91 to 97% | IC50 (Cytochrome P450 2C8): > 50 µM | Vd [20]: 1.6 L/kg | Activity [21]: Not Active | IC50 (Cytochrome P450 2C19): > 50 µM | half-life [22]: 4.8 h | IC50 (Cytochrome P450 3A4): > 50 µM | IC50 (Cytochrome P450 2C9): > 50 µM | efflux ratio (P-gp): 1.1 | Activity (Rattus norvegicus [23]): Dose-dependent effect | Vd [24]: 0.73 L/kg | IC50 (Cytochrome P450 2A6): > 50 µM | IC50 (Cytochrome P450 1A2): > 50 µM | clearance [25]: 4.6 mL/min/kg | Activity (Salmonella typhimurium): Non-Toxic

O=C(c1cc(F)cc(Cl)c1)N1CCc2oc(-c3ccc(F)cn3)nc2C1
AUC [1]: 62400 ng·h/mL | IC50 (Cytochrome P450 2D6): > 50 µM | clearance [3]: 1.7 mL/min/kg | AUC [26]: 4340 ng·h/mL | AUC [4]: 34500 ng·h/mL | clearance [27]: 3.8 mL/min/kg | Cmax [6]: 2880 ng/mL | IC50 [7]: 0.038 µM | Vd [28]: 2.4 L/kg | bioavailability [8]: 61% | bioavailability [9]: 80% | Papp [12]: 37.1 ×10⁻⁶ cm/s | solubility [13]: 6 µg/mL (≈ 16 µM) | remaining at 0.5 h, 1 µM [14]: 91 to 97% | Cmax [15]: 1730 ng/mL | IC50 [17]: 19 µM | AUC [18]: 5090 ng·h/mL | remaining at 0.5 h, 1 µM [19]: 91 to 97% | IC50 (Cytochrome P450 2C8): > 50 µM | Vd [20]: 2.1 L/kg | Activity [21]: Not Active | IC50 (Cytochrome P450 2C19): > 50 µM | half-life [22]: 16.1 h | IC50 (Cytochrome P450 3A4): > 50 µM | IC50 (Cytochrome P450 2C9): > 50 µM | half-life [29]: 8.9 h | efflux ratio (P-gp): 0.9 | Occ (Rattus norvegicus [30]): 48% | Activity (Rattus norvegicus [23]): Dose-dependent effect | IC50 (Cytochrome P450 2A6): > 50 µM | IC50 (Cytochrome P450 1A2): > 50 µM | Activity (Salmonella typhimurium): Non-Toxic
